In patent publication US4021557A, “11-Aminoalkyl-pyridobenzodiazepinones and salts thereof” (Boehringer Ingelheim GmbH, priority 1974, dated 1977):

Assays:
[1] = test system: heart rate; assay: Effect on heart rate of the anesthetized cat after intravenous administration; type: in vivo; parameters: key to type of the reaction (heart rate): --: decrease in heart rate; details: i.v.; for ED10 (dose leading to a 10% alteration of the heart rate) / ED25 (dose leading to a 25% alteration of the heart rate): graphic extrapolation; for type of the reaction (heart rate): tested dosage range 250 - 4,000 γ/kg (A 12.5 - 16,000; W 125 - 4,000)
Experimental: The effect on the heart rate was tested on cats of both sexes (body weight between 2.3 and 3.5 kg) under chloralose-urethane anesthesia. The heart rate was continuously registered by means of a Grass-tachograph 7P4, controlled by the R-wave of the electrocardiogram. The test compound was injected through a catheter introduced into the vena femoralis.

[2] = test system: acetylcholine-induced bronchospasm; assay: Antagonism to acetylcholine-provoked bronchospasm in anesthetized guinea pigs (Konzett and Rossler), i.v.; antiasthmatic / bronchospasmolytic activity; type: in vivo; details: guinea pig; for ED50: Cavia porcellus, iv, 20γ acetylcholine per kg i.v., graphic extrapolation, read-out: Bronchospasmolytic ED50 against acetylcholine-induced bronchospasm
Experimental: The antiasthmatic activity was tested as the antagonism to bronchospasm provoked by intravenous administration of 20γ of acetylcholine per kg body weight in anesthetized guinea pigs (according to method of Konzett and Rossler). From the average percentage decrease of the bronchospasm produced by administering various doses of the compounds of the […] invention an ED50 was determined by graphic extrapolation. The compounds were administered intravenously.

[3] = test system: quantity of secretion; assay: Expectorant (secretolytic) activity in anesthetized guinea pigs (Perry et al, modified by Engelhorn et al), oral; type: in vivo; details: guinea pig, dose 0.5 γ/kg, over 2 hours
Experimental: The expectorant activity was ascertained by the method of Perry et al, J. Pharmcol. exp. Therap. 73, 65 (1941), as modified by Engelhorn et al, Arzneim. Forsch. 21, 1045 (1971), on male guinea pigs (body weight from 450 to 550 gm), which has been anesthetized by intraperitoneal injection of a 25% urethane solution (1.0 gm/kg). The test compound was administered orally at the indicated dosage levels, each in 2 ml of distilled water, by means of an esophageal tube. 5 tests per dose. The increase in secretion was calculated from the quantity of fluid secreted over a period of 2 hours after administration of the test compound, as compared to the quantity secreted without administration of the test compound.

[4] = Acute toxicity after i.v. administration in NMRI-mice (Litchfield and Wilcoxon); details: mouse, in vivo, iv, both sexes, deaths within 14 days, read-out: LD50 in the mouse after i.v. application
Experimental: The acute toxicity was determined with NMRI-mice of both sexes (body weight 20 gm) after intravenous administration of the compound. 0.1 ml of a 0.9% sodium chloride solution per 10gm of animal was used as the vehicle.

CC(C)N(CCCN1c2ccccc2N(C)C(=O)c2cccnc21)C(C)C.Cl [J, 6,11-dihydro-11-(3'-diisopropylamino-n-propyl)-6-methyl-5H-pyrido[2,3-b][1,5]benzodiazepin-5one hydrochloride]
ED10 (dose leading to a 10% alteration of the heart rate) [1]: 1,950 γ/kg
ED25 (dose leading to a 25% alteration of the heart rate) [1]: > 4,000 γ/kg
type of the reaction (heart rate) [1]: --
ED50 [2]: 0.0165 mg/kg
Average duration of effective action in the ED50 range [2]: 50 min
percent change in quantity of secretion (increase) [3]: 108%
LD50 at 336 h [4]: 22.6 mg/kg

CCN(CCCN1c2ccccc2N(C)C(=O)c2cccnc21)C(C)C.Cl [K, 11-[3'-(n-ethyl-N-isopropyl-amino)-n-propyl]-6,11-dihydro-6-methyl-5H-pyrido[2,3-b][1,5]benzodiazepin-5-one hydrochloride]
ED10 (dose leading to a 10% alteration of the heart rate) [1]: 1,350 γ/kg
ED25 (dose leading to a 25% alteration of the heart rate) [1]: > 4,000 γ/kg
type of the reaction (heart rate) [1]: --
ED50 [2]: 0.02 mg/kg
Average duration of effective action in the ED50 range [2]: > 80 min
percent change in quantity of secretion (increase) [3]: 113%
LD50 at 336 h [4]: 30 mg/kg
